From publication PMC7614683, “A small molecule PI3Kα activator for cardioprotection and neuroregeneration” (Nature, 2023)
“And” between values parts separate entries of the source, which are not always exact repeats. Equal entries are not always repeated. Where two headings read alike, the source gives them in different places.

Experiments:
[1] = target: T1, human p110α/p85α (PI3Kα) (Homo sapiens, UniProt P42336); assay: ADP-Glo in vitro lipid kinase assay, PI3Kα; format: biochemical
T1 construct: Full-length human p110α was expressed either in a complex with full-length human p85α (for HTS, biochemistry and HDX-MS); 6xHis tag followed by TEV protease site (N); host or cells: Spodoptera frugiperda Sf9, baculovirus
Procedure: Kinase reactions were performed with ADP-Glo kinase assay kit (Promega Corporation). The enzyme, substrate and compounds were diluted in reaction buffer (20 mM HEPES, 50 mM NaCl, 50 mM KCl, 3 mM MgCl2, 1 mM EGTA, 1 mM TCEP, pH 7.4). Final concentrations of PI3Kα and PI3Kδ used were 25 nM and 50 nM for PI3Kβ. Liposomes (5% brain PI(4,5)P2, 20% brain phosphatidylserine, 45% brain phosphatidylethanolamine, 15% brain phosphatidylcholine, 10% cholesterol, 5% sphingomyelin (Avanti Polar Lipids)) were used at a final concentration of 1 mg/ml.
For the HTS, the reaction mixture contained 0.75 μl enzyme, 15 nl compound and/or pY and 0.75 μl of liposome substrate mixed with ATP. […] (GL Biochem, Shanghai Ltd). ATP was used at a final concentration of 500 μM unless otherwise stated. The final DMSO concentration in the assay was 1%. The experiments were performed at room temperature for 3 h using 1536-well white-polystyrene plates (Corning #3729) before addition of 2 μl of ADP-Glo R1 to terminate the reaction. The plate was incubated for 40 min, followed by addition of 4 μl of ADP-Glo R2 and incubated further for 60 min in the dark. Luminescence was read using an EnVision (PerkinElmer) plate reader. All analyses were performed using Genedata Screener.
For re-screening of HTS hits and routine compound profiling, the reaction mixture contained 2 μl PI3K enzyme, 2 μl compound and/or pY and 2 μl of liposome substrate mixed with ATP. ATP was used at a final concentration of 500 μM for PI3Kα and PI3Kβ and at 200 μM for PI3Kδ, unless otherwise stated. The final DMSO concentration in the assay was 1%. The experiments were performed at room temperature for 3 h using 384 white-polystyrene plates (Corning #3824) before addition of 6 μl of ADP-Glo R1 to terminate the reaction. The plate was incubated for 45 min, followed by addition of 12 μl of ADP-Glo R2 and incubated further for 60 min in the dark. Luminescence was read using a Sense (Hidex) plate reader. […] All analyses were performed using GraphPad Prism 7.
For characterisation of the effects of 1938 on in vitro PI3K enzymology, all reactions were performed at room temperature with 384 white-polystyrene plates (Corning #3574). The final DMSO concentration in the assay was between 0.5%-1.8%. The reaction mixture contained 2 μl PI3K enzyme, 2 μl compound and/or pY and 2 μl of liposome substrate mixed with ATP. ATP was used at a final concentration of 200 μM, unless otherwise stated.

[2] = system: rat sciatic nerve; assay: Rat sciatic nerve crush injury model; format: in vivo; details: 21 days, single animals
Text: We used the rat sciatic nerve crush model of peripheral nerve injury and regeneration[82]–[84]. Adult female Sprague Dawley rats (230-280 g, n=10, Charles River, UK) were anaesthetised by isoflurane inhalation in an induction chamber (5% isoflurane in O2, 0.8 l/min). Anaesthesia was maintained with 1.5-2.5% isoflurane inhalation, and the left sciatic nerve exposed at mid-thigh level.
The nerve was crushed by application of constant pressure using fully closed sterile type 4 tweezers (TAAB) for 15 sec. This was repeated two more times at the same point, with 45° rotation between each crush. The injury site was marked with a 10/0 epineurial non-absorbant suture (Ethicon). Following injury, a single 2 μl injection of 1938 solution (5 μM in sterile H2O) or vehicle (sterile dH2O) was administered proximal to the crush site with a 10 μl Hamilton syringe. An osmotic minipump (Alzet 1004, Charles River, UK) was also implanted between the muscle layers, adjacent to the nerve oriented with the outlet nearest to the crush site, loaded with 1938 solution (100 μM in sterile H2O) or vehicle (sterile H2O). Animals were randomly assigned to groups (n=5 per group) and one experimenter was kept blind to condition for conducting functional and histological analyses. Overlying muscle layers were closed using 4/0 sutures (Ethicon) and the skin was closed with wound clips (Clay Adams). Animals were left to recover for 21 days.
At the end-point of the experiment (21 days), rats were anaesthetised and the sciatic nerve exposed as described above. A reference, ground (Natus) and recording electrode (Ambu Neuroline) were attached above the hip bone, into the tail, and into the tibialis anterior muscle respectively. A microchannel neurointerface (MNI) was placed approximately 2 mm proximal to the injury site and used to stimulate the nerve. The MNI was manufactured using a previously documented protocol. Electrode impedance of the MNI was 27.1 ±19.8 kΩ at 1k Hz. Compound muscle action potential (CMAP) was obtained by sciatic nerve stimulation with square wave pulses of 100 μsec with intensity from 1-10 mA. Stimulus was increased in 0.2 mA steps until muscle response amplitude no longer increased. CMAP amplitude was measured from peak to peak and recorded in triplicate for both the ipsilateral and contralateral side. The CMAP with the largest amplitude was selected for analysis.
A modified multipoint stimulation technique was used to calculate Motor Unit Number Estimation (MUNE)[86]–[88]. Incremental responses were obtained by delivering a submaximal stimulation of 100 μsec duration at a frequency of 1Hz while increasing the stimulus intensity in increments of 0.02 mA to obtain minimal responses. The initial response was obtained with a stimulus intensity of between 0.21 mA and 0.70 mA. […] Additional Single Motor Unit Potentials (SMUPs) were evoked by stimulation in increments of 0.02 mA to obtain a minimum of four additional increments. The position of the stimulating electrode and the location of the recording electrode was changed to allow the recording of SMUPs from a different site of the muscle. This process was repeated at least three times. The CMAP was divided by the mean magnitude of SMUPs to quantify MUNE.
After electrophysiology recordings, animals were culled with sodium pentobarbital injection according to local regulations. Sciatic nerves, including the common peroneal branch, and tibialis anterior muscles were collected and placed in 4% paraformaldehyde (PFA). Nerve samples were fixed overnight in 4% PFA at 4°C before transferring to PBS. Nerve samples were divided into sciatic nerves including the crush site, and the common peroneal branch for sectioning. Nerve samples were immersed in 30% sucrose overnight at 4°C, then snap frozen in Neg-50 frozen section medium (Thermo Scientific) using liquid nitrogen cooled isopentane. […]

[3] = sciatic nerve 3 mm distal to injury
[4] = sciatic nerve 6 mm distal to injury

T1 sequence (P42336 whole entry): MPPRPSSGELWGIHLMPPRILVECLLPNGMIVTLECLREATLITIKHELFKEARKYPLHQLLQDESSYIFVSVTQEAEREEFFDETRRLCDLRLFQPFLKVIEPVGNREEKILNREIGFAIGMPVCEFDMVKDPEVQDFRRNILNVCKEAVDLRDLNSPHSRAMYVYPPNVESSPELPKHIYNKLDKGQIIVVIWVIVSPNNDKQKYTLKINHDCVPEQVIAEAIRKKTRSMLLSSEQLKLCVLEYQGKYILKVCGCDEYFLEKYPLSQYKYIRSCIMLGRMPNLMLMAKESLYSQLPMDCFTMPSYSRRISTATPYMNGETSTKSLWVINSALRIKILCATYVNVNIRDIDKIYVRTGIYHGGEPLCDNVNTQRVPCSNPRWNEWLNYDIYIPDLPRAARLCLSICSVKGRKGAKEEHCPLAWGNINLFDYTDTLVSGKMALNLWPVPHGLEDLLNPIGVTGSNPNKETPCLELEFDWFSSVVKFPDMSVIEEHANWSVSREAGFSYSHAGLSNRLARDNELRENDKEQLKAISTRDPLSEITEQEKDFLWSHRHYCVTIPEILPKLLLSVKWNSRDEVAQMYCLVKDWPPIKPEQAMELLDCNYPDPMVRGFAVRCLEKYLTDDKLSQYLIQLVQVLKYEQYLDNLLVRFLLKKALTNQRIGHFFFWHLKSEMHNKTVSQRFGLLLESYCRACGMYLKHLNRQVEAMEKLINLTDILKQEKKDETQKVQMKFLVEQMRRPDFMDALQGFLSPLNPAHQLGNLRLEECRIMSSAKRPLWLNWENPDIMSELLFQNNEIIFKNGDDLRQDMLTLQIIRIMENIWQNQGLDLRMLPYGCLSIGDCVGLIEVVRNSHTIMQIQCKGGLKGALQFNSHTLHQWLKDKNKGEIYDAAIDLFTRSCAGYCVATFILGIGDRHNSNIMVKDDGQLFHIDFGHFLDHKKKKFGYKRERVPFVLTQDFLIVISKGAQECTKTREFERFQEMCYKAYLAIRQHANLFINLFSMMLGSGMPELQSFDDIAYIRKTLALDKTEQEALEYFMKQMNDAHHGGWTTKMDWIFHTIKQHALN
T1 sequence (P27986 whole entry partner): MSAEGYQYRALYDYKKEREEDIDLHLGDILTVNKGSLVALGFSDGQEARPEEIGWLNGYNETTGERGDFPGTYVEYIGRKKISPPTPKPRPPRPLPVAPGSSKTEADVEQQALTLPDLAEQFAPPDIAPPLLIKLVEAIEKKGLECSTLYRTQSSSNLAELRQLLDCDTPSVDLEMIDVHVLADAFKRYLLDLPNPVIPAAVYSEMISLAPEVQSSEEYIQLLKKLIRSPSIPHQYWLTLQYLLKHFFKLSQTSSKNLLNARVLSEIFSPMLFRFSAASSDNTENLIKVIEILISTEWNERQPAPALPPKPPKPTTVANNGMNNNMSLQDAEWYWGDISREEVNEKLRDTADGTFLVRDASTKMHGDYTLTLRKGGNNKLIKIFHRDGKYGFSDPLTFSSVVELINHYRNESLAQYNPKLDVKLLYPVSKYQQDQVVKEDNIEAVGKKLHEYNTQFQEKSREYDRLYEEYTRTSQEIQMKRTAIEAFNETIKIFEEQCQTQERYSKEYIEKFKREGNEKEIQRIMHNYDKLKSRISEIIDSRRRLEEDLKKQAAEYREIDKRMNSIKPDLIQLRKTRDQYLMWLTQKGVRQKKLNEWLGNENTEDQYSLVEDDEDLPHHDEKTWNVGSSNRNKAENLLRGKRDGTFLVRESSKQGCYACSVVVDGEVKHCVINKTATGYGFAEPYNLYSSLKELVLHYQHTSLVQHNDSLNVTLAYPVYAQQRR

CCN1CCN(c2ccc(Nc3cc(Nc4cccc5c4N(C(C)=O)CC5)ccn3)cc2)CC1 [Compound 1938]
activation of PI3Kα [1]: activates | PI3Kα activation in combination with pY ([1]; 1938 with a saturating concentration of pY): synergistic PI3Kα activation | Maximum activity relative to 1938 ([1]; SI Table 3): 100% | EC50 ([1]; SI Table 3, 1938 analogues, read-out: EC50): 58 ± 28 µM | EC50 ([1]; read-out: EC50 for PI3Kα (in vitro lipid kinase activity)): ~60 µM | Nerve Branch ChAT (ChAT-positive motor axons, distal common peroneal nerve) [2]: increase in 1938-treated animals in the number of choline acetyltransferase (ChAT)-positive motor axons and 34 and 72 and 42 and 49 and 62 | Axons, ChAT [2, 3]: 1228 and 1010 and 1060 and 720 and 1883 | Axons, Neurofilament [2, 3]: 7100 and 6477 and 6615 and 8292 and 8493 | Axons, ChAT [2, 4]: 922 and 986 and 763 and 966 and 1022 | Axons, Neurofilament [2, 4]: 5299 and 5863 and 4746 and 5437 and 5016 | CMAP Recovery ([2]; tibialis anterior muscle): greater compound muscle action potential (CMAP) recovery and 16.9542 % contralateral and 21.941 % contralateral and 17.4705 % contralateral and 17.5154 % contralateral and 28.7184 % contralateral | MUNE Recovery ([2]; tibialis anterior muscle): increased motor unit number estimation and 60.8971 % contralateral and 47.6617 % contralateral and 40.6292 % contralateral and 44.6256 % contralateral and 48.3614 % contralateral | NMJ ([2]; tibialis anterior muscle): 17 % reinnervation and 31 % reinnervation and 16 % reinnervation and 23 % reinnervation and 26 % reinnervation
